# Source: ChEMBL document CHEMBL3046164, “A facile synthesis of some 3-cyano-1,4,6-trisubstituted-2(1H)-pyridinones and their biological evaluation as anticancer agents” (2011)
# Columns and labels:
# Assay type in all cases: functional
# [1] = test system: UO-31; assay: Growth inhibition of Homo sapiens (human) UO31 cells at 10 uM after 48 hr by SRB assay; details: UO-31, 48 h, read-out: GI
# [2] = test system: K562; assay: Growth inhibition of Homo sapiens (human) K562 cells at 10 uM after 48 hr by SRB assay; details: K562, 48 h, read-out: GI
# [3] = test system: HOP-92; assay: Growth inhibition of Homo sapiens (human) HOP92 cells at 10 uM after 48 hr by SRB assay; details: HOP-92, 48 h, read-out: GI
# [4] = test system: OVCAR-5; assay: Growth inhibition of Homo sapiens (human) OVCAR5 cells at 10 uM after 48 hr by SRB assay; details: OVCAR-5, 48 h, read-out: GI
# [5] = test system: MOLT-4; assay: Growth inhibition of Homo sapiens (human) MOLT4 cells at 10 uM after 48 hr by SRB assay; details: MOLT-4, 48 h, read-out: GI
# [6] = test system: HL-60(TB); assay: Growth inhibition of Homo sapiens (human) HL-60(TB) cells at 10 uM after 48 hr by SRB assay; details: HL-60, 48 h, read-out: GI
# [7] = test system: CCRF-CEM; assay: Growth inhibition of Homo sapiens (human) CCRF-CEM cells at 10 uM after 48 hr by SRB assay; details: read-out: GI
# [8] = test system: A498; assay: Growth inhibition of Homo sapiens (human) A498 cells at 10 uM after 48 hr by SRB assay; details: A498, 48 h, read-out: GI
# [9] = test system: SR; assay: Growth inhibition of Homo sapiens (human) SR cells at 10 uM after 48 hr by SRB assay; details: read-out: GI
# [10] = test system: BT-549; assay: Growth inhibition of Homo sapiens (human) BT549 cells at 10 uM after 48 hr by SRB assay; details: BT-549, 48 h, read-out: GI
# [11] = test system: CAKI-1; assay: Growth inhibition of Homo sapiens (human) CAKI-1 cells at 10 uM after 48 hr by SRB assay; details: CAKI-1, 48 h, read-out: GI
# [12] = test system: PC-3; assay: Growth inhibition of Homo sapiens (human) PC3 cells at 10 uM after 48 hr by SRB assay; details: PC-3, 48 h, read-out: GI
# [13] = test system: MDA-MB-468; assay: Growth inhibition of Homo sapiens (human) MDA-MB-468 cells at 10 uM after 48 hr by SRB assay; details: MDA-MB-468, 48 h, read-out: GI
# [14] = test system: RPMI-8226; assay: Growth inhibition of Homo sapiens (human) RPMI8226 cells at 10 uM after 48 hr by SRB assay; details: RPMI-8226, 48 h, read-out: GI
# [15] = test system: NCI-H23; assay: Growth inhibition of Homo sapiens (human) NCI-H23 cells at 10 uM after 48 hr by SRB assay; details: NCI-H23, 48 h, read-out: GI
Structure (SMILES),inhibition of growth at 10 µM [2],inhibition of growth at 10 µM [3],inhibition of growth at 10 µM [7],also measured
Cn1cccc1-c1cc(-c2ccc(Br)cc2)n(C=O)c(=O)c1C#N,54.8%,24.2%,,inhibition of growth at 10 µM [1]: 29.7%; inhibition of growth at 10 µM [4]: 26.9%
COc1ccc(-c2cc(-c3cccn3C)c(C#N)c(=O)n2C=O)cc1OC,21.4%,,47.1%,inhibition of growth at 10 µM [5]: 28.5%; inhibition of growth at 10 µM [6]: 57.1%
Cn1cccc1-c1cc(-c2ccc(Br)cc2)n(N=O)c(=O)c1C#N,,28.2%,,inhibition of growth at 10 µM [8]: 25.7%; inhibition of growth at 10 µM [9]: 37.5%; inhibition of growth at 10 µM [10]: 32.8%
COc1ccc(-c2cc(-c3cccn3C)c(C#N)c(=O)n2N=O)cc1OC,26.6%,26.8%,,
COc1ccc(-c2cc(-c3cccs3)n(N=O)c(=O)c2C#N)cc1,65.8%,36.2%,42%,
COc1ccc(-c2cc(-c3cccn3C)c(C#N)c(=O)n2C(=S)Nc2ccc(F)cc2)cc1OC,26.9%,,,inhibition of growth at 10 µM [11]: 31.1%; inhibition of growth at 10 µM [9]: 27.8%
CCn1c(-c2ccc(Br)cc2)cc(-c2cccn2C)c(C#N)c1=O,,28.3%,62.5%,inhibition of growth at 10 µM [12]: 28%; inhibition of growth at 10 µM [13]: 30%; inhibition of growth at 10 µM [14]: 35%
Cn1cccc1-c1cc(-c2ccc(Br)cc2)n(Cc2ccccc2)c(=O)c1C#N,45.4%,44.7%,39.5%,inhibition of growth at 10 µM [12]: 32.5%; inhibition of growth at 10 µM [14]: 38.2%
CCn1c(-c2ccc(OC)c(OC)c2)cc(-c2cccn2C)c(C#N)c1=O,63.5%,29%,43.7%,inhibition of growth at 10 µM [8]: 44%
COc1ccc(-c2cc(-c3cccn3C)c(C#N)c(=O)n2Cc2ccccc2)cc1OC,,,,inhibition of growth at 10 µM [14]: 64.1%
COc1ccc(-c2cc(-c3cccs3)n(Cc3ccccc3)c(=O)c2C#N)cc1,50.4%,26.8%,,inhibition of growth at 10 µM [15]: 21%; inhibition of growth at 10 µM [1]: 23.5%
Cn1cccc1-c1cc(-c2ccc(Br)cc2)n(S(=O)(=O)c2ccccc2)c(=O)c1C#N,22.5%,26%,55.9%,inhibition of growth at 10 µM [15]: 22.2%; inhibition of growth at 10 µM [5]: 26.6%; inhibition of growth at 10 µM [6]: 59.7%
